Results taken from patent US20120076781A1, “METHODS OF TREATING CANCERS WITH HER3 ANTISENSE OLIGONUCLEOTIDES” (ENZON PHARMACEUTICALS, INC., priority 2009, published 2012).
In the oligonucleotide strings, read from the 5' end, every base follows the letter of its sugar. An asterisk marks phosphorothioate; unmarked linkages are phosphodiester. Other units and linkages are bracketed, terminal groups are in braces. A string of capitals states the bases alone. l = locked nucleic acid (LNA); [5mC] = 5-methylcytosine; d = 2'-deoxy (DNA)

Columns and labels:
Type in all cases: cell-based
Conditions in all cases: 25 nM
human HER3 mRNA = assay: Down-regulation of HER3 mRNA in transfected 15PC3 cells, real-time PCR
Experimental: (§1) 15PC3: The human prostate cancer cell line 15PC3 was cultured in DMEM (Sigma)+10% fetal bovine serum (FBS)+2 mM Glutamax I+gentamicin (25 μg/ml).
(§2) The cells were treated with oligonucleotides using the cationic liposome formulation LipofectAMINE 2000 (Gibco) as transfection vehicle. Cells were seeded in 6-well cell culture plates (NUNC) and treated when 80-90% confluent. Oligomer concentrations ranged from 1 nM to 25 nM final concentration. Formulation of oligomer-lipid complexes was carried out essentially as described by the manufacturer using serum-free OptiMEM (Gibco) and a final lipid concentration of 5 μg/mL LipofectAMINE 2000. Cells were incubated at 37° C. for 4 hours and treatment was stopped by removal of oligomer-containing culture medium. Cells were washed and serum-containing medium was added. After oligomer treatment, cells were allowed to recover for 20 hours before they were harvested for RNA analysis.
(§3) Total RNA was extracted from cells transfected as described above and using the Qiagen RNeasy kit (Qiagen cat. no. 74104) according to the manufacturer's instructions. First strand synthesis was performed using Reverse Transcriptase reagents from Ambion according to the manufacturer's instructions.
(§4) For each sample 0.5 μg total RNA was adjusted to (10.8 μl) with RNase free H2O and mixed with 2 μl random decamers (50 μM) and 4 μl dNTP mix (2.5 mM each dNTP) and heated to 70° C. for 3 min after which the samples were rapidly cooled on ice. After cooling the samples on ice, 2 μl 10× Buffer RT, 1 μl MMLV Reverse Transcriptase (100 U/μl) and 0.25 μl RNase inhibitor (10 U/μl) was added to each sample, followed by incubation at 42° C. for 60 min, heat inactivation of the enzyme at 95° C. for 10 min, and then cooling the sample to 4° C.
(§5) The sample content of human HER3, EGFR and HER2 mRNA was quantified using the human HER3, EGFR and HER2 ABI Prism Pre-Developed TaqMan Assay Reagents (Applied Biosystems cat. no. Hs00951444_ml (HER3), Hs00193306_ml (EGFR) and Hs00170433_ml (HER2) according to the manufacturer's instructions.
(§6) Glyceraldehyde-3-phosphate dehydrogenase (GAPDH) mRNA quantity was used as an endogenous control for normalizing any variance in sample preparation. The sample content of human GAPDH mRNA was quantified using the human GAPDH ABI Prism Pre-Developed TaqMan Assay Reagent (Applied Biosystems cat. no. 4310884E) according to the manufacturer's instructions.
(§7) The cDNA from the first strand synthesis performed as described in Example 5 was diluted 2-20 times, and analyzed by real time quantitative PCR using Taqman 7500 FAST or 7900 FAST from Applied Biosystems. The primers and probe were mixed with 2× Taqman Fast Universal PCR master mix (2×) (Applied Biosystems Cat. #4364103) and added to 4 μl cDNA to a final volume of 10 μl. Each sample was analysed in duplicate. Assaying 2-fold dilutions of a cDNA that had been prepared on material purified from a cell line expressing the RNA of interest generated standard curves for the assays. Sterile H2O was used instead of cDNA for the no-template control. PCR program: 95° C. for 30 seconds, followed by 40 cycles of 95° C., 3 seconds, 60° C., 20-30 seconds. Relative quantities of target mRNA sequence were determined from the calculated Threshold cycle using the Applied Biosystems Fast System SDS Software Version 1.3.1.21. or SDS Software Version 2.3.
(§8) Oligonucleotides presented in Table 4 were evaluated for their potential to down-regulate HER3, EGFR and HER2 mRNA at concentrations of 1, 5 and 25 nM in 15PC3 cells (or HUH-7 as indicated by *) (see FIGS. 2, 3, 4 and 5). SEQ ID NOs: 235 and 236 were used as scrambled controls.
(§9) The data in Table 4 are presented as percentage down-regulation of mRNA relative to mock transfected cells at 25 nM. Lower-case letters represent DNA monomers, bold, upper-case letters represent β-D-oxy-LNA monomers. All cytosines in LNA monomers are 5-methylcytosines. Subscript “s” represents a phosphorothioate linkage.

human EGFR mRNA = assay: Down-regulation of EGFR mRNA in transfected 15PC3 cells, real-time PCR
Experimental: as §1, §2, §3, §4, §5, §6, §7, §8, §9

human HER2 mRNA = assay: Down-regulation of HER2 mRNA in transfected 15PC3 cells, real-time PCR
Experimental: as §1, §2, §3, §4, §5, §6, §7, §8, §9

Substance	HER3: percentage down-regulation of mRNA relative to mock transfected cells (human HER3 mRNA) [%]	EGFR: percentage down-regulation of mRNA relative to mock transfected cells (human EGFR mRNA) [%]	HER2: percentage down-regulation of mRNA relative to mock transfected cells (human HER2 mRNA) [%]
CSASASgSgScStScSaScSaScSaSTSCST (antisense l[5mC]*lA*lA*dG*dG*dC*dT*dC*dA*dC*dA*dC*dA*lT*l[5mC]*lT) [SEQ ID NO: 182, β-D-oxy-LNA/DNA phosphorothioate gapmer antisense oligonucleotide targeting HER3]	74.6	–	–
GSCSCScSaSgScSaScStSaSaStSTSTSC (antisense lG*l[5mC]*l[5mC]*dC*dA*dG*dC*dA*dC*dT*dA*dA*dT*lT*lT*l[5mC]) [SEQ ID NO: 186, β-D-oxy-LNA/DNA phosphorothioate gapmer antisense oligonucleotide targeting HER3]	79.9	–	–
CSTSCScSaSgSaScSaStScSaScSTSCST (antisense l[5mC]*lT*l[5mC]*dC*dA*dG*dA*dC*dA*dT*dC*dA*dC*lT*l[5mC]*lT) [SEQ ID NO: 170, β-D-oxy-LNA/DNA phosphorothioate gapmer antisense oligonucleotide targeting HER3]	–	91.5	65.8
CSASAStScSaStScScSaSaScSaSCSTST (antisense l[5mC]*lA*lA*dT*dC*dA*dT*dC*dC*dA*dA*dC*dA*l[5mC]*lT*lT) [SEQ ID NO: 177, β-D-oxy-LNA/DNA phosphorothioate gapmer antisense oligonucleotide targeting HER3]	51.1	0	63.4
TSCSASaStScSaStScScSaSaScSASCST (antisense lT*l[5mC]*lA*dA*dT*dC*dA*dT*dC*dC*dA*dA*dC*lA*l[5mC]*lT) [SEQ ID NO: 178, β-D-oxy-LNA/DNA phosphorothioate gapmer antisense oligonucleotide targeting HER3]	76.7	0	88.6
CSASTSaScStScScStScSaStScSTSTSC (antisense l[5mC]*lA*lT*dA*dC*dT*dC*dC*dT*dC*dA*dT*dC*lT*lT*l[5mC]) [SEQ ID NO: 193, β-D-oxy-LNA/DNA phosphorothioate gapmer antisense oligonucleotide targeting HER3]	64	–	–
CSASTStScSaSaSgStStScStStSCSAST (antisense l[5mC]*lA*lT*dT*dC*dA*dA*dG*dT*dT*dC*dT*dT*l[5mC]*lA*lT) [SEQ ID NO: 184, β-D-oxy-LNA/DNA phosphorothioate gapmer antisense oligonucleotide targeting HER3]	81.1	–	–
CSASGSaScSaStScSaScStScStSGSGST (antisense l[5mC]*lA*lG*dA*dC*dA*dT*dC*dA*dC*dT*dC*dT*lG*lG*lT) [SEQ ID NO: 171, β-D-oxy-LNA/DNA phosphorothioate gapmer antisense oligonucleotide targeting HER3]	70.6	84.2	2.8
CSASTSgStSaSgSaScSaStScSaSASTST (l[5mC]*lA*lT*dG*dT*dA*dG*dA*dC*dA*dT*dC*dA*lA*lT*lT; antisense) [SEQ ID NO: 179]	70.5	52.6	75.6
ASTSASgScStScScSaSgSaScSaSTSCSA (antisense lA*lT*lA*dG*dC*dT*dC*dC*dA*dG*dA*dC*dA*lT*l[5mC]*lA) [SEQ ID NO: 173, β-D-oxy-LNA/DNA phosphorothioate gapmer antisense oligonucleotide targeting HER3]	–	96.4	39.2
TSCSAScSaScScSaStSaSgScStSCSCSA (antisense lT*l[5mC]*lA*dC*dA*dC*dC*dA*dT*dA*dG*dC*dT*l[5mC]*l[5mC]*lA) [SEQ ID NO: 174, β-D-oxy-LNA/DNA phosphorothioate gapmer antisense oligonucleotide targeting HER3]	–	86.4	94.8
ASTSCScSaSaScSaScStStSgSaSCSCSA (antisense lA*lT*l[5mC]*dC*dA*dA*dC*dA*dC*dT*dT*dG*dA*l[5mC]*l[5mC]*lA) [SEQ ID NO: 176, β-D-oxy-LNA/DNA phosphorothioate gapmer antisense oligonucleotide targeting HER3]	61.6	79.4	74.8
CSASTScScSaSaScSaScStStSgSASCSC (antisense l[5mC]*lA*lT*dC*dC*dA*dA*dC*dA*dC*dT*dT*dG*lA*l[5mC]*l[5mC]) [SEQ ID NO: 175, β-D-oxy-LNA/DNA phosphorothioate gapmer antisense oligonucleotide targeting HER3]	65.5	86.1	76.9
